Entries after “also recorded” stand apart in the source; their conditions may differ.
Experiments:
[1] = tested on: mammary adenocarcinoma R3230AC tumors; assay: Tumor perfusion by Laser Doppler flowmetry; format: in vivo, rat; parameters: key to TUMOR perfusion: 0, unchanged; ↓, decreased; ↑, increased; settings: for tumor blood flow (perfusion), flank tumors: normoxic rats
tumor-feeding arterioles = assay: Diameter of tumor-feeding arterioles in window chambers; format: in vivo, rat; parameters: key to TUMOR vascular diameter: 0, unchanged; ↓, decreased; ↑, increased; settings: for TUMOR vascular diameter: IV
Source text: For i.v. infusions, the femoral artery and vein were cannulated and drugs were infused through the venous cannula. For i.a. infusions, the femoral and left carotid arteries were cannulated and drugs were infused through the carotid cannula. For window chamber experiments, the two window frames were surgically positioned in the dorsal skin flap, followed by tumor cell transplantation to the chamber tissue, as described in Dewhirst et al., 1996. Following several days of tumor growth, direct visualization of tumor-feeding arterioles was performed using intravital microscopy. Tumor-feeding arterioles in window chambers were visualized using transillumination. Arteriolar diameters were measured from videotaped images using an image-shearing monitor (IPM Inc., San Diego, Calif., United States of America).

Fischer 344 rats [2] = assay: Mean arterial pressure and heart rate; format: in vivo, rat; parameters: key to SYSTEMIC MAP / SYSTEMIC HR: 0, unchanged; ↓, decreased; ↑, increased
Method: Mean arterial pressure (MAP) and heart rate (HR) were measured with a blood pressure analyzer (Digi-Med, Micro-Med, Louisville, Ky., United States of America) connected to the femoral artery cannula as described in Dewhirst et al., 1996.

Fischer 344 rats [3] = assay: Blood gas and hemoglobin saturation measurements; format: in vivo, rat; settings: breathing 100% O2
Method: Blood gases and Hb oxygen saturation were measured using a 1640 oximeter coupled to a 482 co-oximeter (Instrumentation Laboratories, Lexington, Mass., United States of America) from 0.5 ml samples of femoral arterial and venous blood. For tumor microvessels in window chambers, Hb saturation was calculated from transmission optical measurements of vascular absorbance using a hyperspectral imaging technique described in Sorg et al., 2005. A liquid crystal tunable filter (CRI, Inc., Woburn, Mass., United States of America) placed in front of a CCD camera (DVC Company, Austin, Tex., United States of America) was used for band-limited imaging.

[4] = tested on: mammary adenocarcinoma R3230AC tumors; assay: Tumor pO2 during gas breathing; format: in vivo, rat
Method: (§1) Tumors were implanted in rats as described hereinabove, and the rats were set up to breathe either 100% O2, 100% O2 plus 100 parts per million ethyl nitrite (ENO), normal room air, or normal room air plus 100 ppm ENO. pO2 was monitored in the tumor or in quadriceps muscle from 30 minutes before the administration of the 100% O2/100% O2 plus 100 ppm ENO/room air/room air plus 100 ppm ENO, during 30 minutes of breathing of the gases, and for 30 minutes after the administered gas supply was removed.

quadriceps muscle [5] = assay: Quadriceps muscle pO2 during gas breathing; format: in vivo, rat
Method: as §1

[6] = tested on: mammary adenocarcinoma R3230AC tumors; assay: Tumor growth delay after radiation; format: in vivo, rat; settings: 100 ppm ENO plus 100% O2; 2 Gy daily on days 0-4; versus 100% O2, room air, non-irradiated
Method: Tumors were implanted in rats as described hereinabove, and the tumors were irradiated daily with 2 Gy of irradiation on days 0-4. Relative tumor volumes were determined daily from day 0 to day 18 in rats that breathed room air (N=4), 100% O2 (N=4), or 100 ppm ENO plus 100% O2. As a control, relative tumor volumes for rats that breathed room air (N=3) and were not treated with radiation. were also determined.

quadriceps muscle [7] = assay: Quadriceps muscle (systemic) perfusion by Laser Doppler flowmetry; format: in vivo, rat; parameters: key to SYSTEMIC perfusion: 0, unchanged; ↓, decreased; ↑, increased; settings: for muscle blood flow (leg quadriceps): hyperoxia versus normoxia
[8] = tested on: baroreceptor and peripheral vasculature; assay: Summary of bioactivity of cell-free SNO-Hb and oxy-Hb (Table 3); format: in vivo, rat
[9] = Hb tetramer/dimer dissociation; format: physicochemical; settings: assuming plasma concentration of about 6.5 μmol/L, room air
Source text: Hb dissociation from tetramers to dimers depends on Hb concentration and oxygen tension, and NO release from dimers is unresponsive to allosteric effectors (e.g., O2). […] Is there enough tetrameric SNO-Hb to sense oxygen and regulate NO delivery? Evidently yes, as a finely tuned regulation of SNO-Hb bioactivity by oxygen tension (NO release depends on local pO2) that contrasted with the O2-independent behavior of oxy-Hb was observed. That the plasma half-life of SNO on Hb was more than doubled during hyperoxia while protein clearance remained unaffected was also observed.

[10] = cited from earlier work
[11] = 30 minutes breathing 100% O2 or 100% O2 plus 100 ppm ENO
[12] = 30 minutes breathing room air plus 100 ppm ENO
[13] = IV, Room air, change versus before treatment
[14] = i.v. infusion, normoxic animals
[15] = vascular pO2 at injection site low
[16] = i.a. and i.v. infusion, control experiments
[17] = vascular pO2 at injection site any

O=O [100% O2]
effects of hyperoxia alone on tumor and muscle perfusion ([1]; 100% O2 alone, before drug infusion): transient decrease that resumed within 5 minutes (i.e., before drug infusion) to no change | diameter of tumor feeding arterioles (tumor-feeding arterioles; hyperoxia alone, t=-5 to t=0): no vascular effect | change in HR (Fischer 344 rats [2]; hyperoxia alone, N=19): −3% | change in MAP (Fischer 344 rats [2]; hyperoxia alone, N=19): +1% | Femoral artery HbO2 (Fischer 344 rats [3]): 98.2 ± 0.1 % | Femoral artery pCO2 (Fischer 344 rats [3]): 56.9 ± 1.7 mm Hg | Femoral artery pO2 (Fischer 344 rats [3]): 435.5 ± 34.7 mm Hg | Femoral vein HbO2 (Fischer 344 rats [3]): 75.8 ± 3.4 % | Femoral vein pCO2 (Fischer 344 rats [3]): 72.0 ± 2.1 mm Hg | Femoral vein pO2 (Fischer 344 rats [3]): 69.8 ± 3.0 mm Hg | Tumor artery HbO2 (Fischer 344 rats [3]; window chamber): 89 ± 2 % | Tumor vein HbO2 (Fischer 344 rats [3]; window chamber): 78 ± 3 % | pO2 in tumors [4, 11]: insufficient to raise the pO2 to above 10 mm Hg | pO2 in quadriceps muscle (quadriceps muscle [5]; [11]): increased rapidly

CCON=O [ENO, ethyl nitrite]
pO2 in tumors [4, 11]: above 10 mm Hg | pO2 in tumors [4, 12]: remained largely unchanged | pO2 in quadriceps muscle (quadriceps muscle [5]; [11]): increased rapidly | pO2 in quadriceps muscle (quadriceps muscle [5]; [12]): this effect was not seen | growth of irradiated tumors (relative tumor volume) [6]: grew more slowly

S-nitrosohemoglobin [SNO-Hb]
TUMOR perfusion ([1]; IA, 100% O2): 0 | TUMOR perfusion ([1]; IA, Room air): 0 | TUMOR perfusion ([1]; IV, 100% O2): 0 | TUMOR perfusion [1, 13]: ↓* | pressor activity (tumor perfusion) ([1]; i.a. infusion, hyperoxic rats versus i.a. room air): not altered | decrease in tumor perfusion ([1]; i.a. infusion, normoxic animals, compared to i.v.): not significantly different compared to i.v. infusion | tumor perfusion, flank tumors ([1]; i.v. infusion, 100% O2 (hyperoxia) versus room air): hyperoxia abolished the reduction in tumor perfusion | tumor perfusion, window chamber tumors ([1]; i.v. infusion, hyperoxic rats): this decrease was prevented | tumor perfusion, window chamber tumors [1, 14]: potent decrease in tumor perfusion | tumor blood flow (perfusion), flank tumors ([1]; i.v. infusion): reduced perfusion | SYSTEMIC perfusion (quadriceps muscle [7]; IA, 100% O2): 0 | SYSTEMIC perfusion (quadriceps muscle [7]; IA, Room air): 0 | SYSTEMIC perfusion (quadriceps muscle [7]; IV, 100% O2): 0 | SYSTEMIC perfusion (quadriceps muscle [7]; IV, Room air): ↓ | muscle blood flow (quadriceps) (quadriceps muscle [7]; i.a. infusion, independently of O2 delivery): remained unaltered | muscle blood flow (leg quadriceps) (quadriceps muscle [7]; i.v. infusion): prevented under hyperoxia | muscle perfusion in the quadriceps (quadriceps muscle [7]; i.v. infusion, rats breathing room air (normoxia)): decreased muscle perfusion more than Hb; also recorded: decrease in muscle blood flow | TUMOR vascular diameter (tumor-feeding arterioles; 100% O2): 0 | TUMOR vascular diameter (tumor-feeding arterioles; Room air): 0 | diameter of tumor feeding arterioles (tumor-feeding arterioles; i.v. infusion, normoxic or hyperoxic rats, window chamber): no significant change | SYSTEMIC HR (Fischer 344 rats [2]; IA, 100% O2): 0 | SYSTEMIC MAP (Fischer 344 rats [2]; IA, 100% O2): ↑ | SYSTEMIC HR (Fischer 344 rats [2]; IA, Room air): 0 | SYSTEMIC MAP (Fischer 344 rats [2]; IA, Room air): ↑ | SYSTEMIC HR (Fischer 344 rats [2]; IV, 100% O2): 0 | SYSTEMIC MAP (Fischer 344 rats [2]; IV, 100% O2): ↑ | SYSTEMIC HR (Fischer 344 rats [2]; IV, Room air): 0 | SYSTEMIC MAP (Fischer 344 rats [2]; IV, Room air): 0 | HR (Fischer 344 rats [2]; i.a. infusion, normoxic and hyperoxic): remained unchanged | MAP (Fischer 344 rats [2]; i.a. infusion, from 5 minutes (normoxic) and 10 minutes (hyperoxic)): significant increase in MAP | HR (Fischer 344 rats [2]; i.v. infusion, hyperoxia): no significant effect on HR | MAP (Fischer 344 rats [2]; i.v. infusion, hyperoxia, from 10 minutes after infusion): significant increase in the MAP | HR (Fischer 344 rats [2]; [14]): No change | MAP (Fischer 344 rats [2]; [14]): No change | Baroreceptor effect ([8]; vascular pO2 at injection site high): inhibition | Peripheral effect ([8]; vascular pO2 at injection site high, dose-dependent effect): vasodilation | Baroreceptor effect [8, 15]: none | Peripheral effect [8, 15]: vasoconstriction | fraction present as tetramers [9]: about 35% | KD (tetramer/dimer), R conformer ([10]; R conformer): 3 µM | KD (tetramer/dimer), T conformer ([10]; T conformer): 0.003 µM

SNO-albumin: bovine serum albumin reacted with NaNO2 (S-nitrosylated albumin) [reference compound]
tumor blood flow (perfusion), flank tumors ([1]; i.v. infusion): small increase in tumor perfusion

albumin [reference compound]
TUMOR perfusion [1, 16]: did not induce any significant or differential change | HR (Fischer 344 rats [2]; [16]): did not induce any significant or differential change | MAP (Fischer 344 rats [2]; [16]): did not induce any significant or differential change

oxyhemoglobin [oxy-Hb, reference compound]
TUMOR perfusion ([1]; IV, 100% O2): ↓ | TUMOR perfusion [1, 13]: ↓ | tumor blood flow (perfusion), flank tumors ([1]; i.v. infusion): rapid and sustained decrease in tumor blood flow | SYSTEMIC perfusion (quadriceps muscle [7]; IV, 100% O2): ↓ | SYSTEMIC perfusion (quadriceps muscle [7]; IV, Room air): ↓ | muscle blood flow (leg quadriceps) (quadriceps muscle [7]; i.v. infusion): hyperoxia did not modify the effect of oxy-Hb in muscles | SYSTEMIC MAP (Fischer 344 rats [2]; IV, 100% O2): 0 | SYSTEMIC MAP (Fischer 344 rats [2]; IV, Room air): 0 | MAP (Fischer 344 rats [2]; i.v. infusion, normoxia or hyperoxia): no effect on MAP | HR (Fischer 344 rats [2]; i.v. infusion, from 5 minutes after infusion, more severe in hyperoxic than in normoxic rats): induced bradycardia | Baroreceptor effect [8, 17]: none | Peripheral effect [8, 17]: vasoconstriction
